Assay results published in patent publication US11274083B2, “Substituted thiophenyl uracils, salts thereof and the use thereof as herbicidal agents” (Syngenta Crop Protection AG, priority 2017, dated 2022).

Experiments:
Format in all cases: in vivo
Abutilon theophrasti [1] = experiment: Herbicidal action post-emergence, greenhouse pot test
Procedure, shortened: (§1)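 Plants grown from seed in sandy loam are treated at the one-leaf stage with aqueous suspensions or emulsions, 600 L/ha water rate, 0.5% additive, at 80 g/ha or lower. They then stand about 3 weeks in the greenhouse before visual scoring against untreated controls.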

Alopecurus myosuroides [2] = experiment: as above; settings: scored visually after about 3 weeks vs untreated controls
Procedure, shortened: as §1

Amaranthus retroflexus [3] = experiment: as above
Procedure, shortened: as §1

Avena fatua [4] = experiment: as above
Procedure, shortened: as §1

Echinochloa crus-galli [5] = experiment: as above
Procedure, shortened: as §1

Hordeum murinum [6] = experiment: as above
Procedure, shortened: as §1

Lolium rigidum [7] = experiment: as above
Procedure, shortened: as §1

Matricaria inodora [8] = experiment: as above
Procedure, shortened: as §1

Pharbitis purpurea [9] = experiment: as above
Procedure, shortened: as §1

Polygonum convolvulus [10] = experiment: as above
Procedure, shortened: as §1

Setaria viridis [11] = experiment: as above
Procedure, shortened: as §1

Stellaria media [12] = experiment: as above
Procedure, shortened: as §1

Veronica persica [13] = experiment: as above
Procedure, shortened: as §1

Viola tricolor [14] = experiment: as above
Procedure, shortened: as §1

Oryza sativa = experiment: Crop compatibility post-emergence, greenhouse pot test; settings: application rate 5 g/ha
Procedure, shortened: (§2)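 Visual % damage rating versus untreated plants (100% = plants dead, 0% = as control), taken about 3 weeks post-treatment. Spray applied to foliage at one-leaf stage (2–3 weeks from sowing) as WP/EC formulation in water plus 0.5% additive, 600 L/ha; greenhouse pots, sandy loam.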

Triticum aestivum = experiment: as above
Procedure, shortened: as §2

Abutilon theophrasti [15] = experiment: Herbicidal action pre-emergence, greenhouse pot test; settings: application rate 320 g/ha
Procedure, shortened: (§3)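 Efficacy (%) was estimated visually after about 3 weeks in the greenhouse by comparison with untreated pots. Before that, seeded pots received a surface spray of formulated compound at 320 g/ha or less.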

Alopecurus myosuroides [16] = experiment: as above; settings: application rate 320 g/ha
Procedure, shortened: as §3

Amaranthus retroflexus [17] = experiment: as above
Procedure, shortened: as §3

Echinochloa crus-galli [18] = experiment: as above; settings: application rate 320 g/ha
Procedure, shortened: as §3

Lolium rigidum [19] = experiment: as above
Procedure, shortened: as §3

Pharbitis purpurea [20] = experiment: as above; settings: application rate 320 g/ha
Procedure, shortened: as §3

Polygonum convolvulus [21] = experiment: as above; settings: application rate 320 g/ha
Procedure, shortened: as §3

Setaria viridis [22] = experiment: as above; settings: application rate 320 g/ha
Procedure, shortened: as §3

Stellaria media [23] = experiment: as above
Procedure, shortened: as §3

Veronica persica [24] = experiment: as above
Procedure, shortened: as §3

Viola tricolor [25] = experiment: as above; settings: application rate 320 g/ha
Procedure, shortened: as §3

Matricaria inodora [26] = experiment: as above
Digitaria sanguinalis = experiment: Herbicidal action post-emergence, greenhouse pot test
Avena fatua [27] = experiment: Herbicidal action pre-emergence, greenhouse pot test; settings: application rate 320 g/ha
Procedure, shortened: as §3

Cyperus esculentus = experiment: as above; settings: application rate 320 g/ha
Procedure, shortened: as §3

Hordeum murinum [28] = experiment: as above; settings: application rate 320 g/ha
Procedure, shortened: as §3

Zea mays = experiment: Crop compatibility post-emergence, greenhouse pot test; settings: application rate 5 g/ha
Procedure, shortened: as §2

| Compound | Abutilon theophrasti (Efficacy in %) (Abutilon theophrasti [1]; application rate 80 g/ha) [%] | Alopecurus myosuroides (Efficacy in %) (Alopecurus myosuroides [2]; application rate 80 g/ha) [%] | Amaranthus retroflexus (Efficacy in %) (Amaranthus retroflexus [3]; application rate 80 g/ha) [%] | Echinochloa crus-galli (Efficacy in %) (Echinochloa crus-galli [5]; application rate 80 g/ha) [%] | Hordeum murinum (Efficacy in %) (Hordeum murinum [6]; application rate 80 g/ha) [%] | Lolium rigidum (Efficacy in %) (Lolium rigidum [7]; application rate 80 g/ha) [%] | Matricaria inodora (Efficacy in %) (Matricaria inodora [8]; application rate 80 g/ha) [%] | Pharbitis purpurea (Efficacy in %) (Pharbitis purpurea [9]; application rate 80 g/ha) [%] | Polygonum convolvulus (Efficacy in %) (Polygonum convolvulus [10]; application rate 80 g/ha) [%] | Setaria viridis (Efficacy in %) (Setaria viridis [11]; application rate 80 g/ha) [%] | Stellaria media (Efficacy in %) (Stellaria media [12]; application rate 80 g/ha) [%] | Veronica persica (Efficacy in %) (Veronica persica [13]; application rate 80 g/ha) [%] | Viola tricolor (Efficacy in %) (Viola tricolor [14]; application rate 80 g/ha) [%] | Abutilon theophrasti (Efficacy in %) (Abutilon theophrasti [15]) [%] | Alopecurus myosuroides (Efficacy in %) (Alopecurus myosuroides [16]) [%] | Echinochloa crus-galli (Efficacy in %) (Echinochloa crus-galli [18]) [%] | Pharbitis purpurea (Efficacy in %) (Pharbitis purpurea [20]) [%] | Polygonum convolvulus (Efficacy in %) (Polygonum convolvulus [21]) [%] | Setaria viridis (Efficacy in %) (Setaria viridis [22]) [%] | Viola tricolor (Efficacy in %) (Viola tricolor [25]) [%] | other results |
| --- | --- | --- | --- | --- | --- | --- | --- | --- | --- | --- | --- | --- | --- | --- | --- | --- | --- | --- | --- | --- | --- |
| CCCOC(=O)CCOC(=O)C(C)Sc1cc(-n2c(=O)cc(C(F)(F)F)n(C)c2=O)c(F)cc1Cl (stereo not drawn) [I.1-8] | 100 | 90 | 100 | 100 | 90 | 90 | 100 | 100 | 100 | 100 | 100 | 100 | 100 | 100 | 80 | 100 | 100 | 100 | 100 | 100 | Avena fatua (Efficacy in %) (Avena fatua [4]; application rate 80 g/ha): 80%; Oryza sativa (Efficacy in %) (Oryza sativa): 20%; Triticum aestivum (Efficacy in %) (Triticum aestivum; application rate 20 g/ha): 20%; Amaranthus retroflexus (Efficacy in %) (Amaranthus retroflexus [17]; application rate 320 g/ha): 100%; Lolium rigidum (Efficacy in %) (Lolium rigidum [19]; application rate 320 g/ha): 90%; Stellaria media (Efficacy in %) (Stellaria media [23]; application rate 320 g/ha): 100%; Veronica persica (Efficacy in %) (Veronica persica [24]; application rate 320 g/ha): 100%; Matricaria inodora (Efficacy in %) (Matricaria inodora [26]; application rate 320 g/ha): 100%; Digitaria sanguinalis (Efficacy in %) (Digitaria sanguinalis; application rate 80 g/ha): 100% |
| COC(=O)CCOC(=O)CSc1cc(-n2c(=O)cc(C(F)(F)F)n(C)c2=O)c(F)cc1Cl [I.8-2] | 100 | 80 |  | 100 |  | 90 |  | 100 |  | 100 |  | 100 | 100 | 100 | 80 | 100 | 100 | 100 | 100 | 100 | Amaranthus retroflexus (Efficacy in %) (Amaranthus retroflexus [3]; application rate 20 g/ha): 100%; Hordeum murinum (Efficacy in %) (Hordeum murinum [6]; application rate 20 g/ha): 80%; Matricaria inodora (Efficacy in %) (Matricaria inodora [8]; application rate 20 g/ha): 100%; Polygonum convolvulus (Efficacy in %) (Polygonum convolvulus [10]; application rate 20 g/ha): 100%; Stellaria media (Efficacy in %) (Stellaria media [12]; application rate 20 g/ha): 100%; Amaranthus retroflexus (Efficacy in %) (Amaranthus retroflexus [17]; application rate 20 g/ha): 100%; Avena fatua (Efficacy in %) (Avena fatua [27]): 80%; Cyperus esculentus (Efficacy in %) (Cyperus esculentus): 90%; Hordeum murinum (Efficacy in %) (Hordeum murinum [28]): 80%; Lolium rigidum (Efficacy in %) (Lolium rigidum [19]; application rate 80 g/ha): 90%; Stellaria media (Efficacy in %) (Stellaria media [23]; application rate 320 g/ha): 100%; Veronica persica (Efficacy in %) (Veronica persica [24]; application rate 80 g/ha): 100%; Matricaria inodora (Efficacy in %) (Matricaria inodora [26]; application rate 320 g/ha): 100% |
| CC(Sc1cc(-n2c(=O)cc(C(F)(F)F)n(C)c2=O)c(F)cc1Cl)C(=O)OC1COC(=O)C1 (stereo not drawn) [I.1-144] |  |  |  |  |  |  |  |  |  |  |  |  |  |  |  |  |  |  |  |  | Abutilon theophrasti (Efficacy in %) (Abutilon theophrasti [1]; application rate 20 g/ha): 100%; Alopecurus myosuroides (Efficacy in %) (Alopecurus myosuroides [2]; application rate 20 g/ha): 80%; Amaranthus retroflexus (Efficacy in %) (Amaranthus retroflexus [3]; application rate 20 g/ha): 100%; Avena fatua (Efficacy in %) (Avena fatua [4]; application rate 20 g/ha): 100%; Echinochloa crus-galli (Efficacy in %) (Echinochloa crus-galli [5]; application rate 20 g/ha): 100%; Hordeum murinum (Efficacy in %) (Hordeum murinum [6]; application rate 20 g/ha): 80%; Lolium rigidum (Efficacy in %) (Lolium rigidum [7]; application rate 20 g/ha): 100%; Matricaria inodora (Efficacy in %) (Matricaria inodora [8]; application rate 20 g/ha): 100%; Pharbitis purpurea (Efficacy in %) (Pharbitis purpurea [9]; application rate 20 g/ha): 100%; Polygonum convolvulus (Efficacy in %) (Polygonum convolvulus [10]; application rate 20 g/ha): 100%; Setaria viridis (Efficacy in %) (Setaria viridis [11]; application rate 20 g/ha): 100%; Stellaria media (Efficacy in %) (Stellaria media [12]; application rate 20 g/ha): 80%; Veronica persica (Efficacy in %) (Veronica persica [13]; application rate 20 g/ha): 100%; Viola tricolor (Efficacy in %) (Viola tricolor [14]; application rate 20 g/ha): 100%; Oryza sativa (Efficacy in %) (Oryza sativa): 20%; Zea mays (Efficacy in %) (Zea mays): 10%; Digitaria sanguinalis (Efficacy in %) (Digitaria sanguinalis; application rate 20 g/ha): 80% |
| CC(Sc1cc(-n2c(=O)cc(C(F)(F)F)n(C)c2=O)c(F)cc1Cl)C(=O)OCCC(=O)OC(C)(C)C (stereo not drawn) [I.1-5] | 100 |  | 100 | 100 | 80 | 80 | 100 | 100 | 100 | 100 | 100 | 100 |  | 100 | 100 | 100 | 100 | 100 | 100 | 100 | Viola tricolor (Efficacy in %) (Viola tricolor [14]; application rate 20 g/ha): 100%; Triticum aestivum (Efficacy in %) (Triticum aestivum; application rate 80 g/ha): 20%; Amaranthus retroflexus (Efficacy in %) (Amaranthus retroflexus [17]; application rate 80 g/ha): 100%; Avena fatua (Efficacy in %) (Avena fatua [27]): 100%; Cyperus esculentus (Efficacy in %) (Cyperus esculentus): 80%; Hordeum murinum (Efficacy in %) (Hordeum murinum [28]): 100%; Lolium rigidum (Efficacy in %) (Lolium rigidum [19]; application rate 320 g/ha): 100%; Stellaria media (Efficacy in %) (Stellaria media [23]; application rate 80 g/ha): 100%; Veronica persica (Efficacy in %) (Veronica persica [24]; application rate 320 g/ha): 100%; Matricaria inodora (Efficacy in %) (Matricaria inodora [26]; application rate 80 g/ha): 100% |
